Results from US9527853B2, “Fused triazole derivatives as gamma secretase modulators” (Ares Trading S.A., priority 2012, dated 2016).

Columns and labels:
AβTotal = experiment: Amyloidβ peptide release (AβTotal) assay, AlphaLisa on supernatant of APPswe-HEK cells; assay type: cell-based, human; settings: 24 hours, ratio Abtot versus Ab42
Description: (§1) Amyloidβ Peptide Release (Aβ42 & AβTotal) Assay to Determine IC50 Values.
(§2) Amyloidβ peptide release (Aβ42 & AβTotal) assay are performed in 384 well microtiter plates (Perkin Elmer AlphaPlate #6008350) in a final volume of 20 μl, using supernatant coming from APPswe-HEK cells exposed to test compounds. Compounds are dissolved in and diluted in 100% DMSO and incubated with APPswe-HEK cells for 24 hours a 37° C. in 5% CO2. The supernatant from APPswe-HEK cells are mixed with antibodies: for Aβ42 detection: AlphaLisa Amyloid β 1-42 Kit (Perkin Elmer AL203L) Anti-Amyloid β1-42-specific antibody acceptor beads, biotinylated anti-Amyloid “β1-42” antibody and streptavidin (SA) donor beads diluted in AlphaLisa buffer (to the instructions of the supplier). For Aβ total detection: Custom Anti-Amyloid βtotal acceptor beads (6E10 acceptor beads), biotinylated anti-Amyloid “β1-42” antibody (Perkin Elmer AL203L) and streptavidin (SA) donor beads diluted in AlphaLisa buffer (to the instructions of the supplier). After addition of supernatant to the antibody mix, the assay is incubated 4 h and 30 minutes. AmyloidP peptide release (Aβ42 & AβTotal) is measured with a Pherastar FS (BMG) multimode reader using the alphascreen module.

Aβ42 = experiment: Amyloidβ peptide release (Aβ42) assay, AlphaLisa on supernatant of APPswe-HEK cells; assay type: cell-based; settings: Homo sapiens, 24 hours incubation with compound, read-out: Ab42 IC50 Ranges
Description: as §1, §2

Compound | Abtot/Ab42 selectivity ranges (AβTotal) | IC50 (Aβ42)
COc1cc(Nc2nnn3c2CCCC3c2ccc(F)cc2Cl)ccc1-n1cnc(C)c1 (centres unmarked) [Example 1, 7-(2-chloro-4-fluorophenyl)-N-(3-methoxy-4-(4-methyl-1H-imidazol-1-yl)phenyl)-4,5,6,7-tetrahydro-[1,2,3]triazolo[1,5-a]pyridin-3-amine] | b (b: 100 fold > selectivity ≧ 50 fold) | 150 to 500 nM
COc1cc(Nc2nnn3c2CCCC3c2ccccc2C(F)(F)F)ccc1-n1cnc(C)c1 (centres unmarked) [Example 2] | a (a: selectivity ≧ 100 fold) | 150 to 500 nM
Cc1cn(-c2ccc(Nc3nnn4c3CCCC4c3ccc(F)cc3Cl)cc2F)cn1 (centres unmarked) [Example 3, 7-(2-chloro-4-fluorophenyl)-N-(3-fluoro-4-(4-methyl-1H-imidazol-1-yl)phenyl)-4,5,6,7-tetrahydro-[1,2,3]triazolo[1,5-a]pyridin-3-amine] | b (b: 100 fold > selectivity ≧ 50 fold) | 150 to 500 nM
COc1cc(Nc2nnn3c2CCCC3c2ccc(Cl)cc2)ccc1-n1cnc(C)c1 (centres unmarked) [Example 4, 7-(4-chlorophenyl)-N-(3-methoxy-4-(4-methyl-1H-imidazol-1-yl)phenyl)-4,5,6,7-tetrahydro-[1,2,3]triazolo[1,5-a]pyridin-3-amine] | b (b: 100 fold > selectivity ≧ 50 fold) | 150 to 500 nM
COc1cc(Nc2nnn3c2CCCC3c2ccc(Cl)c(Cl)c2)ccc1-n1cnc(C)c1 (centres unmarked) [Example 5, 7-(3,4-dichlorophenyl)-N-(3-methoxy-4-(4-methyl-1H-imidazol-1-yl)phenyl)-4,5,6,7-tetrahydro-[1,2,3]triazolo[1,5-a]pyridin-3-amine] | b (b: 100 fold > selectivity ≧ 50 fold) | 150 to 500 nM
COc1cc(Nc2nnn3c2CCCC3c2cccc(C(F)(F)F)c2)ccc1-n1cnc(C)c1 (centres unmarked) [Example 6, N-(3-methoxy-4-(4-methyl-1H-imidazol-1-yl)phenyl)-7-(3-(trifluoromethyl)phenyl)-4,5,6,7-tetrahydro-[1,2,3]triazolo[1,5-a]pyridin-3-amine] | b (b: 100 fold > selectivity ≧ 50 fold) | 150 to 500 nM
COc1cc(Nc2nnn3c2CCCC3c2ccc(F)cc2)ccc1-n1cnc(C)c1 (centres unmarked) [Example 7, 7-(4-fluorophenyl)-N-(3-methoxy-4-(4-methyl-1H-imidazol-1-yl)phenyl)-4,5,6,7-tetrahydro-[1,2,3]triazolo[1,5-a]pyridin-3-amine] | b (b: 100 fold > selectivity ≧ 50 fold) | 150 to 500 nM
COc1cc(Nc2nnn3c2CCC3c2ccc(Cl)cc2)ccc1-n1cnc(C)c1 (centres unmarked) [Example 8, 6-(4-chlorophenyl)-N-(3-methoxy-4-(4-methyl-1H-imidazol-1-yl)phenyl)-5,6-dihydro-4H-pyrrolo[1,2-c][1,2,3]triazol-3-amine] | a (a: selectivity ≧ 100 fold) | 150 to 500 nM
Cc1cc(-c2ccc(Nc3nnn4c3CCC4c3ccc(Cl)cc3)cc2)ccn1 (centres unmarked) [Example 9] | a (a: selectivity ≧ 100 fold) | 150 to 500 nM
COc1cc(Nc2nnn3c2CCC3c2ccc(F)cc2)ccc1-n1cnc(C)c1 (centres unmarked) [Example 10, 6-(4-fluorophenyl)-N-(3-methoxy-4-(4-methyl-1H-imidazol-1-yl)phenyl)-5,6-dihydro-4H-pyrrolo[1,2-c][1,2,3]triazol-3-amine] | a (a: selectivity ≧ 100 fold) | 150 to 500 nM
COc1cc(Nc2nnn3c2CCC3c2ccccc2Cl)ccc1-n1cnc(C)c1 (centres unmarked) [Example 11, 6-(2-chlorophenyl)-N-(3-methoxy-4-(4-methyl-1H-imidazol-1-yl)phenyl)-5,6-dihydro-4H-pyrrolo[1,2-c][1,2,3]triazol-3-amine] | b (b: 100 fold > selectivity ≧ 50 fold) | 150 to 500 nM
COc1cc(NC(=O)c2nnn3c2CCCC3c2ccc(Cl)cc2)ccc1-n1cnc(C)c1 (centres unmarked) [Example 12, 7-(4-chlorophenyl)-N-(3-methoxy-4-(4-methyl-1H-imidazol-1-yl)phenyl)-4,5,6,7-tetrahydro-[1,2,3]triazolo[1,5-a]pyridine-3-carboxamide] | b (b: 100 fold > selectivity ≧ 50 fold) | ≤ 150 nM
Cc1cn(-c2ccc(NC(=O)c3nnn4c3CCCC4c3ccc(Cl)cc3)cc2C#N)cn1 (centres unmarked) [Example 13, 7-(4-chlorophenyl)-N-(3-cyano-4-(4-methyl-1H-imidazol-1-yl)phenyl)-4,5,6,7-tetrahydro-[1,2,3]triazolo[1,5-a]pyridine-3-carboxamide] | c (c: 50 fold > selectivity ≧ 10 fold) | 150 to 500 nM
Cc1cn(-c2ccc(NC(=O)c3nnn4c3CCCC4c3ccc(Cl)cc3)cc2F)cn1 (centres unmarked) [Example 14, 7-(4-chlorophenyl)-N-(3-fluoro-4-(4-methyl-1H-imidazol-1-yl)phenyl)-4,5,6,7-tetrahydro-[1,2,3]triazolo[1,5-a]pyridine-3-carboxamide] | c (c: 50 fold > selectivity ≧ 10 fold) | 150 to 500 nM
COc1nc(NC(=O)c2nnn3c2CCCC3c2ccc(Cl)cc2)ccc1-n1cnc(C)c1 (centres unmarked) [Example 15, 7-(4-chlorophenyl)-N-(6-methoxy-5-(4-methyl-1H-imidazol-1-yl)pyridin-2-yl)-4,5,6,7-tetrahydro-[1,2,3]triazolo[1,5-a]pyridine-3-carboxamide] | c (c: 50 fold > selectivity ≧ 10 fold) | 500 to 1000 nM
COc1cc(NC(=O)c2nnn3c2CCCC3c2ccc(Cl)cc2)ccc1-c1ccnc(C)c1 (centres unmarked) [Example 16, 7-(4-chlorophenyl)-N-(3-methoxy-4-(2-methylpyridin-4-yl)phenyl)-4,5,6,7-tetrahydro-[1,2,3]triazolo[1,5-a]pyridine-3-carboxamide] | c (c: 50 fold > selectivity ≧ 10 fold) | 150 to 500 nM
COc1cc(NC(=O)c2nnn3c2CCCC3c2ccc(F)cc2Cl)ccc1-n1cnc(C)c1 (centres unmarked) [Example 17, 7-(2-chloro-4-fluorophenyl)-N-(3-methoxy-4-(4-methyl-1H-imidazol-1-yl)phenyl)-4,5,6,7-tetrahydro-[1,2,3]triazolo[1,5-a]pyridine-3-carboxamide] | c (c: 50 fold > selectivity ≧ 10 fold) | 150 to 500 nM
COc1cc(NC(=O)c2nnn3c2CCCC3c2ccccc2C(F)(F)F)ccc1-n1cnc(C)c1 (centres unmarked) [Example 18, N-(3-methoxy-4-(4-methyl-1Himidazol-1-yl)phenyl)-7-(2-(trifluoromethyl)phenyl)-4,5,6,7-tetrahydro-[1,2,3]triazolo[1,5-a]pyridine-3-carboxamide] | c (c: 50 fold > selectivity ≧ 10 fold) | 150 to 500 nM
COc1cc(NC(=O)c2nnn3c2CCCC3c2ccc(Cl)c(Cl)c2)ccc1-n1cnc(C)c1 (centres unmarked) [Example 19, 7-(3,4-dichlorophenyl)-N-(3-methoxy-4-(4-methyl-1H-imidazol-1-yl)phenyl)-4,5,6,7-tetrahydro-[1,2,3]triazolo[1,5-a]pyridine-3-carboxamide] | b (b: 100 fold > selectivity ≧ 50 fold) | ≤ 150 nM
COc1cc(NC(=O)c2nnn3c2CCCC3c2ccc(F)cc2)ccc1-n1cnc(C)c1 (centres unmarked) [Example 20, 7-(4-fluorophenyl)-N-(3-methoxy-4-(4-methyl-1H-imidazol-1-yl)phenyl)-4,5,6,7-tetrahydro-[1,2,3]triazolo[1,5-a]pyridine-3-carboxamide] | b (b: 100 fold > selectivity ≧ 50 fold) | 150 to 500 nM
Cc1cc(-c2ccc(NC(=O)c3nnn4c3CCCC4c3ccc(F)cc3)cc2)ccn1 (centres unmarked) [Example 21, 7-(4-fluorophenyl)-N-(4-(2-methylpyridin-4-yl)phenyl)-4,5,6,7-tetrahydro-[1,2,3]triazolo[1,5-a]pyridine-3-carboxamide] | d (d: 10 fold > selectivity) | < 1000 nM
COc1cc(NC(=O)c2nnn3c2CCCC3c2cccc(C(F)(F)F)c2)ccc1-n1cnc(C)c1 (centres unmarked) [Example 22, N-(3-methoxy-4-(4-methyl-1H-imidazol-1-yl)phenyl)-7-(3-(trifluoromethyl)phenyl)-4,5,6,7-tetrahydro-[1,2,3]triazolo[1,5-a]pyridine-3-carboxamide] | b (b: 100 fold > selectivity ≧ 50 fold) | 150 to 500 nM
COc1cc(NC(=O)c2nnn3c2CCC[C@@H]3c2ccc(Cl)cc2)ccc1-n1cnc(C)c1 [Example 23, (R)-7-(4-chlorophenyl)-N-(3-methoxy-4-(4-methyl-1H-imidazol-1-yl)phenyl)-4,5,6,7-tetrahydro-[1,2,3]triazolo[1,5-a]pyridine-3-carboxamide] | b (b: 100 fold > selectivity ≧ 50 fold) | ≤ 150 nM
COc1cc(NC(=O)c2nnn3c2CCC[C@H]3c2ccc(Cl)cc2)ccc1-n1cnc(C)c1 [Example 24, (S)-7-(4-chlorophenyl)-N-(3-methoxy-4-(4-methyl-1H-imidazol-1-yl)phenyl)-4,5,6,7-tetrahydro-[1,2,3]triazolo[1,5-a]pyridine-3-carboxamide] | b (b: 100 fold > selectivity ≧ 50 fold) | 150 to 500 nM
COc1cc(NC(=O)c2nnn3c2CCCC3c2ccc(C(F)(F)F)cc2)ccc1-n1cnc(C)c1 (centres unmarked) [Example 25, N-(3-methoxy-4-(4-methyl-1H-imidazol-1-yl)phenyl)-7-(4-(trifluoromethyl)phenyl)-4,5,6,7-tetrahydro-[1,2,3]triazolo[1,5-a]pyridine-3-carboxamide] | c (c: 50 fold > selectivity ≧ 10 fold) | ≤ 150 nM
